Source: ChEMBL document CHEMBL3046287, “Azoxystrobin resistance of French Mycosphaerella graminicola strains assessed by four in vitro bioassays and by screening of G143A substitution” (Crop Prot, 2010)
Converted amounts (≈) assume the structure as drawn.

Key:
Assay type in all cases: functional, organism-based
Zymoseptoria tritici [1] = assay: Antifungal activity against azoxystrobin-resistant Zymoseptoria tritici T0345 carrying cytochrome-b A143 allele assessed as inhibition of spore germination after 2 days at 18 degC by spotting on PDA medium assay; conditions: T0345, 48 h
Zymoseptoria tritici [2] = assay: Antifungal activity against azoxystrobin-sensitive Zymoseptoria tritici T0470 carrying cytochrome-b G143 allele assessed as fungal growth inhibition after 6 days at 20 degC by microplate without alamar blue assay; conditions: T0470, 144 h
Zymoseptoria tritici [3] = assay: Antifungal activity against azoxystrobin-sensitive Zymoseptoria tritici IPO323 carrying cytochrome-b G143 allele assessed as fungal growth inhibition after 6 days at 20 degC by microplate without alamar blue assay; conditions: IPO323, 144 h
Zymoseptoria tritici [4] = assay: Antifungal activity against azoxystrobin-sensitive Zymoseptoria tritici T0468 carrying cytochrome-b G143 allele assessed as fungal growth inhibition after 6 days at 20 degC by microplate without alamar blue assay; conditions: T0468, 144 h
Zymoseptoria tritici [5] = assay: Antifungal activity against azoxystrobin-sensitive Zymoseptoria tritici T0211 carrying cytochrome-b G143 allele assessed as fungal growth inhibition after 6 days at 20 degC by microplate without alamar blue assay; conditions: T0211, 144 h
Zymoseptoria tritici [6] = assay: Antifungal activity against azoxystrobin-sensitive Zymoseptoria tritici T0210 carrying cytochrome-b G143 allele assessed as fungal growth inhibition after 6 days at 20 degC by microplate without alamar blue assay; conditions: T0210, 144 h
Zymoseptoria tritici [7] = assay: Antifungal activity against azoxystrobin-sensitive Zymoseptoria tritici T0365 carrying cytochrome-b G143 allele assessed as inhibition of spore germination after 2 days at 18 degC by spotting on PDA medium assay; conditions: T0365, 48 h
Zymoseptoria tritici [8] = assay: Antifungal activity against azoxystrobin-resistant Zymoseptoria tritici T0485 carrying cytochrome-b A143 allele assessed as inhibition of spore germination after 2 days at 18 degC by spotting on PDA medium assay; conditions: T0485, 48 h
Zymoseptoria tritici [9] = assay: Antifungal activity against azoxystrobin-resistant Zymoseptoria tritici T049 carrying cytochrome-b A143 allele assessed as inhibition of spore germination after 2 days at 18 degC by spotting on PDA medium assay; conditions: T049, 48 h
Zymoseptoria tritici [10] = assay: Antifungal activity against azoxystrobin-resistant Zymoseptoria tritici T0414 carrying cytochrome-b A143 allele assessed as inhibition of spore germination after 2 days at 18 degC by spotting on PDA medium assay; conditions: T0414, 48 h
Zymoseptoria tritici [11] = assay: Antifungal activity against azoxystrobin-resistant Zymoseptoria tritici T0451 carrying cytochrome-b A143 allele assessed as fungal colony perpendicular diameter changes after 10 days at 18 degC by spotting on PDA medium assay; conditions: T0451, 240 h
Zymoseptoria tritici [12] = assay: Antifungal activity against azoxystrobin-resistant Zymoseptoria tritici T0290 carrying cytochrome-b A143 allele assessed as fungal colony perpendicular diameter changes after 10 days at 18 degC by spotting on PDA medium assay; conditions: T0290, 240 h
Zymoseptoria tritici [13] = assay: Antifungal activity against azoxystrobin-sensitive Zymoseptoria tritici T0148 carrying cytochrome-b G143 allele assessed as fungal colony perpendicular diameter changes after 10 days at 18 degC by spotting on PDA medium assay; conditions: T0148, 240 h
Zymoseptoria tritici [14] = assay: Antifungal activity against azoxystrobin-resistant Zymoseptoria tritici T049 carrying cytochrome-b A143 allele assessed as fungal colony perpendicular diameter changes after 10 days at 18 degC by spotting on PDA medium assay; conditions: T049, 240 h
Zymoseptoria tritici [15] = assay: Antifungal activity against azoxystrobin-sensitive Zymoseptoria tritici T0470 carrying cytochrome-b G143 allele assessed as inhibition of spore germination after 2 days at 18 degC by spotting on PDA medium assay; conditions: T0470, 48 h
Zymoseptoria tritici [16] = assay: Antifungal activity against azoxystrobin-sensitive Zymoseptoria tritici T0468 carrying cytochrome-b G143 allele assessed as inhibition of spore germination after 2 days at 18 degC by spotting on PDA medium assay; conditions: T0468, 48 h
Zymoseptoria tritici [17] = assay: Antifungal activity against azoxystrobin-sensitive Zymoseptoria tritici T0211 carrying cytochrome-b G143 allele assessed as inhibition of spore germination after 2 days at 18 degC by spotting on PDA medium assay; conditions: T0211, 48 h
Zymoseptoria tritici [18] = assay: Antifungal activity against azoxystrobin-sensitive Zymoseptoria tritici IPO94269 carrying cytochrome-b G143 allele assessed as inhibition of spore germination after 2 days at 18 degC by spotting on PDA medium assay; conditions: IPO94269, 48 h
Zymoseptoria tritici [19] = assay: Antifungal activity against azoxystrobin-sensitive Zymoseptoria tritici T0278 carrying cytochrome-b G143 allele assessed as inhibition of spore germination after 2 days at 18 degC by spotting on PDA medium assay; conditions: T0278, 48 h
Zymoseptoria tritici [20] = assay: Antifungal activity against azoxystrobin-sensitive Zymoseptoria tritici T0471 carrying cytochrome-b G143 allele assessed as inhibition of spore germination after 2 days at 18 degC by spotting on PDA medium assay; conditions: T0471, 48 h
Zymoseptoria tritici [21] = assay: Antifungal activity against azoxystrobin-sensitive Zymoseptoria tritici T0471 carrying cytochrome-b G143 allele assessed as fungal growth inhibition after 6 days at 20 degC by microplate without alamar blue assay; conditions: T0471, 144 h
Zymoseptoria tritici [22] = assay: Antifungal activity against azoxystrobin-sensitive Zymoseptoria tritici T0148 carrying cytochrome-b G143 allele assessed as fungal growth inhibition after 6 days at 20 degC by microplate without alamar blue assay; conditions: T0148, 144 h
Zymoseptoria tritici [23] = assay: Antifungal activity against azoxystrobin-resistant Zymoseptoria tritici T0242 carrying cytochrome-b A143 allele assessed as fungal growth inhibition after 6 days at 20 degC by microplate without alamar blue assay; conditions: T0242, 144 h
Zymoseptoria tritici [24] = assay: Antifungal activity against azoxystrobin-resistant Zymoseptoria tritici T0290 carrying cytochrome-b A143 allele assessed as fungal growth inhibition after 6 days at 20 degC by microplate without alamar blue assay; conditions: T0290, 144 h
Zymoseptoria tritici [25] = assay: Antifungal activity against azoxystrobin-resistant Zymoseptoria tritici T0251 carrying cytochrome-b A143 allele assessed as fungal growth inhibition after 6 days at 20 degC by microplate without alamar blue assay; conditions: T0251, 144 h
Zymoseptoria tritici [26] = assay: Antifungal activity against azoxystrobin-resistant Zymoseptoria tritici T0414 carrying cytochrome-b A143 allele assessed as fungal growth inhibition after 6 days at 20 degC by microplate without alamar blue assay; conditions: T0414, 144 h
Zymoseptoria tritici [27] = assay: Antifungal activity against azoxystrobin-sensitive Zymoseptoria tritici T0211 carrying cytochrome-b G143 allele assessed as fungal colony perpendicular diameter changes after 10 days at 18 degC by spotting on PDA medium assay; conditions: T0211, 240 h
Zymoseptoria tritici [28] = assay: Antifungal activity against azoxystrobin-sensitive Zymoseptoria tritici IPO94269 carrying cytochrome-b G143 allele assessed as fungal colony perpendicular diameter changes after 10 days at 18 degC by spotting on PDA medium assay; conditions: IPO94269, 240 h
Zymoseptoria tritici [29] = assay: Antifungal activity against azoxystrobin-sensitive Zymoseptoria tritici T021 carrying cytochrome-b G143 allele assessed as fungal growth inhibition after 6 days at 20 degC by microplate without alamar blue assay; conditions: T021, 144 h
Zymoseptoria tritici [30] = assay: Antifungal activity against azoxystrobin-sensitive Zymoseptoria tritici T0473 carrying cytochrome-b G143 allele assessed as fungal colony perpendicular diameter changes after 10 days at 18 degC by spotting on PDA medium assay; conditions: T0473, 240 h

## CO/C=C(/C(=O)OC)c1ccccc1Oc1cc(Oc2ccccc2C#N)ncn1 [AZOXYSTROBIN]
Zymoseptoria tritici [1]
  IC50: 12.6 µg/mL (≈ 31.3 µM)
Zymoseptoria tritici [2]
  IC50: < 0.01 µg/mL
Zymoseptoria tritici [3]
  IC50: 0.01 µg/mL (≈ 0.0248 µM)
Zymoseptoria tritici [4]
  IC50: 0.02 µg/mL (≈ 0.0496 µM)
Zymoseptoria tritici [5]
  IC50: 0.02 µg/mL (≈ 0.0496 µM)
Zymoseptoria tritici [6]
  IC50: 0.03 µg/mL (≈ 0.0744 µM)
Zymoseptoria tritici [7]
  IC50: 0.06 µg/mL (≈ 0.149 µM)
Zymoseptoria tritici [8]
  IC50: 14.6 µg/mL (≈ 36.3 µM)
Zymoseptoria tritici [9]
  IC50: 11.6 µg/mL (≈ 28.7 µM)
Zymoseptoria tritici [10]
  IC50: 16.2 µg/mL (≈ 40.3 µM)
Zymoseptoria tritici [11]
  IC50: 14.7 µg/mL (≈ 36.5 µM)
Zymoseptoria tritici [12]
  IC50: 11.2 µg/mL (≈ 27.7 µM)
Zymoseptoria tritici [13]
  IC50: 0.06 µg/mL (≈ 0.149 µM)
Zymoseptoria tritici [14]
  IC50: 19.4 µg/mL (≈ 48.2 µM)
Zymoseptoria tritici [15]
  IC50: 0.02 µg/mL (≈ 0.0496 µM)
Zymoseptoria tritici [16]
  IC50: 0.25 µg/mL (≈ 0.62 µM)
Zymoseptoria tritici [17]
  IC50: 0.08 µg/mL (≈ 0.198 µM)
Zymoseptoria tritici [18]
  IC50: 0.06 µg/mL (≈ 0.149 µM)
Zymoseptoria tritici [19]
  IC50: 0.94 µg/mL (≈ 2.33 µM)
Zymoseptoria tritici [20]
  IC50: 0.08 µg/mL (≈ 0.198 µM)
Zymoseptoria tritici [21]
  IC50: 0.05 µg/mL (≈ 0.124 µM)
Zymoseptoria tritici [22]
  IC50: 0.21 µg/mL (≈ 0.521 µM)
Zymoseptoria tritici [23]
  IC50: > 100 µg/mL
Zymoseptoria tritici [24]
  IC50: > 100 µg/mL
Zymoseptoria tritici [25]
  IC50: > 100 µg/mL
Zymoseptoria tritici [26]
  IC50: > 100 µg/mL
Zymoseptoria tritici [27]
  IC50: 0.08 µg/mL (≈ 0.198 µM)
Zymoseptoria tritici [28]
  IC50: 0.1 µg/mL (≈ 0.248 µM)
Zymoseptoria tritici [29]
  IC50: 0.22 µg/mL (≈ 0.545 µM)
Zymoseptoria tritici [30]
  IC50: 0.13 µg/mL (≈ 0.322 µM)
